Assay results taken from patent publication US10597388B2, “Pyridazinone herbicides” (FMC CORPORATION, priority 2014, dated 2020).

Experiments:
Type in all cases: in vivo
[1] = tested on: foxtail, giant (giant foxtail, Setaria faberii); experiment: Test A greenhouse herbicide test, pre- and postemergence
From the text: (§1) Seeds of plant species selected from barnyardgrass (Echinochloa crus-galli), kochia (Kochia scoparia), ragweed (common ragweed, Ambrosia elatior), ryegrass, Italian (Italian ryegrass, Lolium multiflorum), crabgrass, large (large crabgrass, Digitaria sanguinalis), foxtail, giant (giant foxtail, Setaria faberii), momingglory (Ipomoea spp.), pigweed (Amaranthus retroflexus), velvetleaf (Abutilon theophrasti), wheat (Triticum aestivum), and corn (Zea mays) were planted into a blend of loam soil and sand and treated preemergence with a directed soil spray using test chemicals formulated in a non-phytotoxic solvent mixture which included a surfactant.
(§2) At the same time, plants selected from these crop and weed species and also blackgrass (Alopecurus myosuroides), and galium (catchweed bedstraw, Galium aparine) were planted in pots containing the same blend of loam soil and sand and treated with postemergence applications of test chemicals formulated in the same manner. Plants ranged in height from 2 to 10 cm and were in the one- to two-leaf stage for the postemergence treatment. Treated plants and untreated controls were maintained in a greenhouse for approximately 10 d, after which time all treated plants were compared to untreated controls and visually evaluated for injury. Plant response ratings, summarized in Table A, are based on a 0 to 100 scale where 0 is no effect and 100 is complete control. A dash (-) response means no test result.

[2] = tested on: ryegrass, Italian (Italian ryegrass, Lolium multiflorum); experiment: as above
From the text: as §1, §2

[3] = tested on: pigweed (Amaranthus retroflexus); experiment: as above
From the text: as §1, §2

corn (Zea mays) = experiment: as above; conditions: Postemergence
From the text: as §1, §2

[4] = tested on: barnyardgrass (Echinochloa crus-galli); experiment: as above
From the text: as §1, §2

[5] = tested on: ragweed (common ragweed, Ambrosia elatior); experiment: as above
From the text: as §1, §2

kochia (Kochia scoparia) = experiment: as above
From the text: as §1, §2

[6] = tested on: wheat (Triticum aestivum); experiment: as above; conditions: Postemergence
From the text: as §1, §2

[7] = tested on: blackgrass (Alopecurus myosuroides); experiment: Test A greenhouse herbicide test, postemergence
In short: (§3)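 Scores are visual injury ratings from 0 (no effect) to 100 (complete control) versus untreated plants, taken roughly 10 d after treatment in the greenhouse. Treatment was postemergence, on one- to two-leaf plants 2–10 cm high growing in a loam soil/sand mix.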

[8] = tested on: galium (catchweed bedstraw, Galium aparine); experiment: Test A greenhouse herbicide test, postemergence
In short: as §3

[9] = tested on: ducksalad (Heteranthera limosa); experiment: Test B flooded paddy test; conditions: 250 g ai/ha, Flood; visual rating on scale of 0 to 100 where 0 is no effect and 100 is complete control; 13 to 15 d after treatment
In short: (§4)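 Ratings use a 0-100 visual scale, where 100 is complete control, and compare treated plants with controls after 13 to 15 d of greenhouse growth. Compound went straight into paddy water kept 3 cm over the soil surface, applied to seedlings at the 2-leaf stage.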

[10] = tested on: sedge, umbrella (small-flower umbrella sedge, Cyperus difformis); experiment: Test B flooded paddy test; conditions: 250 g ai/ha, Flood; visual rating on scale of 0 to 100 where 0 is no effect and 100 is complete control; 13 to 15 d after treatment
In short: as §4

rice (Oryza sativa) = experiment: Test B flooded paddy test; conditions: 250 g ai/ha, Flood; visual rating on scale of 0 to 100 where 0 is no effect and 100 is complete control; 13 to 15 d after treatment
In short: as §4

[11] = tested on: barnyardgrass (Echinochloa crus-galli); experiment: Test B flooded paddy test; conditions: 250 g ai/ha, Flood; visual rating on scale of 0 to 100 where 0 is no effect and 100 is complete control; 13 to 15 d after treatment
In short: as §4

[12] = Postemergence, 125 g ai/ha, 0 to 100 scale where 0 is no effect and 100 is complete control
[13] = Postemergence, 500 g ai/ha, visual rating after approx. 10 d, 0 to 100 scale (0 no effect, 100 complete control)
[14] = Preemergence, 125 g ai/ha, 0 to 100 scale where 0 is no effect and 100 is complete control
[15] = Preemergence, 500 g ai/ha, 0 to 100 scale where 0 is no effect and 100 is complete control
[16] = 125 g ai/ha, 0 to 100 scale where 0 is no effect and 100 is complete control
[17] = 500 g ai/ha, visual rating after approx. 10 d, 0 to 100 scale (0 no effect, 100 complete control)
[18] = Postemergence, 125 g ai/ha, 0 to 100 scale, 0 no effect, 100 complete control
[19] = Preemergence, 125 g ai/ha, visual injury rating, 0 to 100 scale (0 no effect, 100 complete control), approx. 10 d
[20] = 125 g ai/ha, 0 to 100 scale, 0 no effect, 100 complete control
[21] = Postemergence, 1000 g ai/ha, 0 to 100 scale, 0 is no effect, 100 is complete control
[22] = Preemergence, 1000 g ai/ha, 0 to 100 scale, 0 no effect, 100 complete control
[23] = 1000 g ai/ha, 0 to 100 scale, 0 is no effect, 100 is complete control

CCC(=O)Oc1c(C)nn(C)c(=O)c1-c1c(C(F)(F)F)ccc2ccccc12 [Compound 147]
60: Plant response rating, Barnyardgrass [4, 15] | Plant response rating, Blackgrass [7, 16]
40: Plant response rating, Foxtail, Giant [1, 15] | Plant response rating, Barnyardgrass [4, 13]
10: Foxtail, Giant plant response rating [1, 14] | Plant response rating, Barnyardgrass [4, 12]
20: Plant response rating, Wheat [6, 16]
30: Plant response rating, Foxtail, Giant [1, 12] | Barnyardgrass plant response rating [4, 14]
100: Plant response rating, Ryegrass, Italian [2, 13] | Plant response rating, Ryegrass, Italian [2, 15] | Plant response rating, Pigweed [3, 15] | Plant response rating, Kochia (kochia (Kochia scoparia); [13]) | Plant response rating, Galium [8, 17]
50: Kochia plant response rating (kochia (Kochia scoparia); [14])
0: Plant response rating, Corn (corn (Zea mays); [16]) | Plant response rating, Corn (corn (Zea mays); [17]) | Plant response rating, Ducksalad [9] | Plant response rating, Sedge, Umbrella [10] | Plant response rating, Rice (rice (Oryza sativa)) | Plant response rating, Barnyardgrass [11]
80: Plant response rating, Foxtail, Giant [1, 13] | Plant response rating, Kochia (kochia (Kochia scoparia); [12]) | Plant response rating, Kochia (kochia (Kochia scoparia); [15]) | Plant response rating, Wheat [6, 17]
90: Plant response rating, Ryegrass, Italian [2, 12] | Plant response rating, Pigweed [3, 12] | Plant response rating, Pigweed [3, 13] | Pigweed plant response rating [3, 14] | Plant response rating, Ragweed [5, 12] | Plant response rating, Ragweed [5, 13] | Plant response rating, Ragweed [5, 15] | Plant response rating, Blackgrass [7, 17] | Plant response rating, Galium [8, 16]

Cc1n[nH]c(=O)c(-c2cccc3ccccc23)c1OC(F)F [Compound 175]
30: Plant response rating, Ryegrass, Italian [2, 13]
60: Plant response rating, Pigweed [3, 15]
20: Plant response rating, Ryegrass, Italian [2, 18] | Plant response rating, Ryegrass, Italian [2, 19] | Plant response rating, Ryegrass, Italian [2, 15] | Plant response rating, Corn (corn (Zea mays); [17]) | Plant response rating, Ragweed [5, 15] | Plant response rating, Kochia (kochia (Kochia scoparia); [15]) | Plant response rating, Wheat [6, 17] | Plant response rating, Blackgrass [7, 17]
0: Plant response rating, Foxtail, Giant [1, 18] | Plant response rating, Foxtail, Giant [1, 13] | Plant response rating, Foxtail, Giant [1, 19] | Plant response rating, Foxtail, Giant [1, 15] | Plant response rating, Pigweed [3, 18] | Plant response rating, Pigweed [3, 13] | Plant response rating, Pigweed [3, 19] | Plant response rating, Corn (corn (Zea mays); [20]) | Plant response rating, Barnyardgrass [4, 18] | Plant response rating, Barnyardgrass [4, 13] | Plant response rating, Barnyardgrass [4, 19] | Plant response rating, Barnyardgrass [4, 15] | Plant response rating, Ragweed [5, 18] | Plant response rating, Ragweed [5, 13] | Plant response rating, Ragweed [5, 19] | Plant response rating, Kochia (kochia (Kochia scoparia); [18]) | Plant response rating, Kochia (kochia (Kochia scoparia); [13]) | Plant response rating, Kochia (kochia (Kochia scoparia); [19]) | Plant response rating, Wheat [6, 20] | Plant response rating, Blackgrass [7, 20] | Plant response rating, Galium [8, 20] | Plant response rating, Galium [8, 17] | Plant response rating, Ducksalad [9] | Plant response rating, Sedge, Umbrella [10] | Plant response rating, Rice (rice (Oryza sativa)) | Plant response rating, Barnyardgrass [11]

Cc1nn(C)c(=O)c(-c2cccc3ccccc23)c1OCC(=O)c1ccccc1 [Compound 184]
80: Ryegrass, Italian plant response rating [2, 21] | Pigweed plant response rating [3, 21] | Kochia plant response rating (kochia (Kochia scoparia); [21])
20: Foxtail, Giant plant response rating [1, 21] | Barnyardgrass plant response rating [4, 21] | Plant response rating, Kochia (kochia (Kochia scoparia); [22])
0: Corn plant response rating (corn (Zea mays); [23]) | Wheat plant response rating [6, 23] | Plant response rating, Ducksalad [9] | Plant response rating, Sedge, Umbrella [10] | Plant response rating, Rice (rice (Oryza sativa)) | Plant response rating, Barnyardgrass [11]
90: Plant response rating, Ryegrass, Italian [2, 22] | Plant response rating, Pigweed [3, 22] | Galium plant response rating [8, 23]
30: Plant response rating, Foxtail, Giant [1, 22] | Ragweed plant response rating [5, 21] | Blackgrass plant response rating [7, 23]
10: Plant response rating, Barnyardgrass [4, 22]
70: Plant response rating, Ragweed [5, 22]

C#Cc1ccc2cccc(-c3c(O)c(C)nn(C)c3=O)c2c1 [Compound 150]
0: Plant response rating, Foxtail, Giant [1, 12] | Foxtail, Giant plant response rating [1, 14] | Plant response rating, Corn (corn (Zea mays); [16]) | Plant response rating, Corn (corn (Zea mays); [17]) | Plant response rating, Barnyardgrass [4, 12] | Barnyardgrass plant response rating [4, 14] | Plant response rating, Ragweed [5, 12] | Kochia plant response rating (kochia (Kochia scoparia); [14]) | Plant response rating, Wheat [6, 16] | Plant response rating, Blackgrass [7, 16] | Plant response rating, Ducksalad [9] | Plant response rating, Sedge, Umbrella [10] | Plant response rating, Rice (rice (Oryza sativa)) | Plant response rating, Barnyardgrass [11]
10: Plant response rating, Barnyardgrass [4, 15]
100: Plant response rating, Pigweed [3, 15]
20: Plant response rating, Kochia (kochia (Kochia scoparia); [15]) | Plant response rating, Wheat [6, 17]
70: Plant response rating, Ryegrass, Italian [2, 15] | Plant response rating, Kochia (kochia (Kochia scoparia); [13])
80: Plant response rating, Pigweed [3, 13] | Pigweed plant response rating [3, 14] | Plant response rating, Galium [8, 17]
50: Plant response rating, Blackgrass [7, 17]
90: Plant response rating, Ryegrass, Italian [2, 13]
40: Plant response rating, Ryegrass, Italian [2, 12] | Plant response rating, Pigweed [3, 12] | Plant response rating, Kochia (kochia (Kochia scoparia); [12])
30: Plant response rating, Foxtail, Giant [1, 13] | Plant response rating, Foxtail, Giant [1, 15] | Plant response rating, Barnyardgrass [4, 13] | Plant response rating, Ragweed [5, 13] | Plant response rating, Ragweed [5, 15] | Plant response rating, Galium [8, 16]
